Data from ChEMBL document CHEMBL3797106, “Potent and Selective Agonists of Sphingosine 1-Phosphate 1 (S1P1): Discovery and SAR of a Novel Isoxazole Based Series” (J Med Chem, 2016).

How the values were obtained:
[1] = tested on: Cynomolgus monkey; experiment: Ratio of Cmax to Cmin in cynomolgus monkey at 5 mg/kg, po; format: ADME, organism-based, Macaca fascicularis; conditions: in vivo
[2] = Tmax in dog at 1 mg/kg, po; format: ADME, organism-based, Canis lupus familiaris; conditions: in vivo
[3] = AUC in dog at 1 mg/kg, po; format: ADME, organism-based, Canis lupus familiaris; conditions: in vivo
[4] = Half life in dog at 1 mg/kg, iv; format: ADME, organism-based, Canis lupus familiaris; conditions: in vivo
[5] = Mean residence time in dog at 1 mg/kg, iv; format: ADME, organism-based, Canis lupus familiaris; conditions: in vivo
[6] = Clearance in dog at 1 mg/kg, iv; format: ADME, organism-based, Canis lupus familiaris; conditions: in vivo
[7] = tested on: Rattus norvegicus; experiment: Antiarthritic activity in po dosed complete Freund's adjuvant-induced Lewis rat arthritis model assessed as inhibition of bone resorption administered as qd for 21 days started from day of immunization; format: functional, organism-based
[8] = tested on: Mus musculus; experiment: Induction of delay in disease onset in po dosed C57BL/6 mouse experimental autoimmune encephalomyelitis model of multiple sclerosis administered as qd for 24 days started from day of immunization measured 3 times per week of compound dosing; format: functional, organism-based
[9] = tested on: Mus musculus; experiment: Reduction in clinical score in po dosed C57BL/6 mouse experimental autoimmune encephalomyelitis model of multiple sclerosis administered as qd for 24 days started from day of immunization measured 3 times per week of compound dosing; format: functional; conditions: C57BL/6, po, 576 h
[10] = target: T1, Sphingosine 1-phosphate receptor 1 (Homo sapiens, UniProt P21453); experiment: Agonist activity at human S1P1 receptor expressed in CHO cell membranes after 45 mins by [35S]-GTPgammaS binding assay; format: functional
T1 sequence (P21453 whole entry): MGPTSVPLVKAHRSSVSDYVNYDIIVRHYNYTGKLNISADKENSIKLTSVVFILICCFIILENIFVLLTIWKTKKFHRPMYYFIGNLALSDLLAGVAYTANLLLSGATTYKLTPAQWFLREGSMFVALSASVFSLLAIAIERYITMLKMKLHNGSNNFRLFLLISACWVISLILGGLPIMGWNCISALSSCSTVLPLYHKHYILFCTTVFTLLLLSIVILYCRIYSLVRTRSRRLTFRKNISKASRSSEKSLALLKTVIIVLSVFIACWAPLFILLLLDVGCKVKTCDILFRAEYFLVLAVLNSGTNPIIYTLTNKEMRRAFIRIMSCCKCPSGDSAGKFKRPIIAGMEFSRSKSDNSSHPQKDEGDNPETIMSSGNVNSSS

[11] = species on record: Homo sapiens; experiment: Selectivity ratio of EC50 for human S1P3 receptor to EC50 for human S1P1 receptor
[12] = tested on: Rattus norvegicus; experiment: Reduction of blood lymphocyte level in Lewis rat at 1 mg/kg, po measured at 4 hrs by hematology analyzer relative to vehicle-treated control; format: functional; set-up: scale not given: the % may be the effect or the level left
[13] = Plasma concentration in Lewis rat at 1 mg/kg, po measured at 4 hrs; format: ADME, organism-based
[14] = tested on: Rattus norvegicus; experiment: Reduction of blood lymphocyte level in Lewis rat at 1 mg/kg, po measured at 24 hrs by hematology analyzer relative to vehicle-treated control; format: functional; set-up: scale not given: the % may be the effect or the level left
[15] = target: T1, Sphingosine 1-phosphate receptor 1; experiment: Induction of internalization of C-terminal GFP-fused human S1P1 receptor expressed in CHO […] after 50 mins; format: cell-based
[16] = target: T1, Sphingosine 1-phosphate receptor 1; experiment: Induction of internalization of C-terminal GFP-fused human S1P1 receptor expressed in CHO […] at 4.6 nM after 50 mins relative to control; format: cell-based
[17] = Plasma protein binding in rat; format: ADME, cell-free; conditions: read-out: PPB (converted)
[18] = Plasma protein binding in dog; format: ADME, cell-free, Canis lupus familiaris; conditions: read-out: PPB
[19] = Plasma protein binding in monkey; format: ADME, cell-free, Macaca mulatta; conditions: rhesus monkey, read-out: PPB (converted)
[20] = tested on: Salmonella typhi; experiment: Mutagenicity in Salmonella typhi by Ames test; format: toxicity, organism-based; conditions: salmonella enterica subsp. enterica […]
[21] = Permeability across apical to basolateral side in human Caco2 cells; format: ADME, cell-based; conditions: Caco-2, read-out: permeability
[22] = species on record: Homo sapiens; experiment: Inhibition of sodium channel (unknown origin) at 10 uM by patch clamp method relative to control
[23] = target: Cytochrome P450 2C9 (Homo sapiens, UniProt P11712); experiment: Inhibition of CYP2C9 (unknown origin); format: ADME
Sequence of Cytochrome P450 2C9 (P11712 whole entry): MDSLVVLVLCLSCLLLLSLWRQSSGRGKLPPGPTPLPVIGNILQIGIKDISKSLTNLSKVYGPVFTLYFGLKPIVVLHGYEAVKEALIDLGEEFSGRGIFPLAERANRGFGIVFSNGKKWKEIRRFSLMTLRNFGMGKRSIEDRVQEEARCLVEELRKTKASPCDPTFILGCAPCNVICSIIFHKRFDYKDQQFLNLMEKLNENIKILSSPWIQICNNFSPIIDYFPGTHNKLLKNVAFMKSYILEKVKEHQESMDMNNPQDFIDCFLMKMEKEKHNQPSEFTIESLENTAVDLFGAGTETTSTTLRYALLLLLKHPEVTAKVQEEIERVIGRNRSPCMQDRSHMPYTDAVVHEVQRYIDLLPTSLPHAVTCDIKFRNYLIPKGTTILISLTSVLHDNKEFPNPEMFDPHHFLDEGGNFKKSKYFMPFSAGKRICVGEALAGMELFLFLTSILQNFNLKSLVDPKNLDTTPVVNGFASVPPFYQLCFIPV

[24] = target: Cytochrome P450 2D6 (Homo sapiens, UniProt P10635); experiment: Inhibition of CYP2D6 (unknown origin); format: ADME
Sequence of Cytochrome P450 2D6 (P10635 whole entry): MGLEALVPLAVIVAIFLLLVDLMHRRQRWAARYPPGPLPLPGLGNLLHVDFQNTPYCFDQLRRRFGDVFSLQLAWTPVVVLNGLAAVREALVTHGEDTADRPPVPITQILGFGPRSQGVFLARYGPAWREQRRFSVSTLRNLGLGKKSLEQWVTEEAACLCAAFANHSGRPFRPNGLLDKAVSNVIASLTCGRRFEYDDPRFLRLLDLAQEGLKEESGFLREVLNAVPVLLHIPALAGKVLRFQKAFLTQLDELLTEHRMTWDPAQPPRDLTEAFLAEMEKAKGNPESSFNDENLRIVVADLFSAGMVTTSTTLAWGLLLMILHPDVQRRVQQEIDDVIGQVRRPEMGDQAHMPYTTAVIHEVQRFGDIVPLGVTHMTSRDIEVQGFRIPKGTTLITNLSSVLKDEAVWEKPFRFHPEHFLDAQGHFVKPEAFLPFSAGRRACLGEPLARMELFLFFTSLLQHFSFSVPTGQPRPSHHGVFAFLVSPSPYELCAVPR

[25] = target: Cytochrome P450 3A4 (Homo sapiens, UniProt P08684); experiment: Inhibition of CYP3A4 (unknown origin); format: ADME
Sequence of Cytochrome P450 3A4 (P08684 whole entry): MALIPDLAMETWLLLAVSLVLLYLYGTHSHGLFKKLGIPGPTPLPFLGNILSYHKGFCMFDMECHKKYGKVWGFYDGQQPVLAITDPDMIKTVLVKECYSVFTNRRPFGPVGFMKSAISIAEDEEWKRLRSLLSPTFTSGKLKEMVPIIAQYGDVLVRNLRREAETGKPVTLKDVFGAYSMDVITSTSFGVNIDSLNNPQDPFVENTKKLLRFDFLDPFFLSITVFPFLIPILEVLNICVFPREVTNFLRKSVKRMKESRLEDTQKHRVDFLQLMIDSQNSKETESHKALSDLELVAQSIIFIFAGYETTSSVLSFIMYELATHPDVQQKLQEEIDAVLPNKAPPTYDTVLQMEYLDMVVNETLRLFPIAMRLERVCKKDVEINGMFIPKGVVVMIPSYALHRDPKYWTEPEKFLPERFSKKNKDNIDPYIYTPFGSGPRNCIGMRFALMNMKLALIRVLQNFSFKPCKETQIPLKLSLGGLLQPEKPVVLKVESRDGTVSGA

[26] = Plasma concentration in Lewis rat at 0.3 mg/kg, po measured at 4 hrs; format: ADME, organism-based
[27] = tested on: Rattus norvegicus; experiment: Reduction of blood lymphocyte level in Lewis rat at 0.3 mg/kg, po measured at 24 hrs by hematology analyzer relative to vehicle-treated control; format: functional; set-up: scale not given: the % may be the effect or the level left
[28] = Plasma concentration in Lewis rat at 0.3 mg/kg, po measured at 24 hrs; format: ADME, organism-based
[29] = tested on: Rattus norvegicus; experiment: Reduction of blood lymphocyte level in Lewis rat at 0.03 mg/kg, po measured at 4 hrs by hematology analyzer relative to vehicle-treated control; format: functional; set-up: scale not given: the % may be the effect or the level left
[30] = Plasma concentration in Lewis rat at 0.03 mg/kg, po measured at 4 hrs; format: ADME, organism-based
[31] = Plasma concentration in Lewis rat at 0.03 mg/kg, po measured at 24 hrs; format: ADME, organism-based
[32] = tested on: Plasma; experiment: Ratio drug level in Lewis rat plasma at 0.3 mg/kg, po at 4 hrs to drug level in Lewis rat plasma at 0.3 mg/kg, po at 24 hrs; format: ADME, organism-based; conditions: in vivo
[33] = tested on: Plasma; experiment: Ratio drug level in Lewis rat plasma at 0.03 mg/kg, po at 4 hrs to drug level in Lewis rat plasma at 0.03 mg/kg, po at 24 hrs; format: ADME, organism-based; conditions: in vivo
[34] = Cmax in mouse at 10 mg/kg, po; format: ADME, organism-based; set-up: dose 10 mg/kg, route oral; conditions: in vivo
[35] = Tmax in mouse at 10 mg/kg, po; format: ADME, organism-based; conditions: in vivo
[36] = tested on: Mus musculus; experiment: AUC in mouse at 10 mg/kg, po; format: ADME, organism-based; conditions: in vivo
[37] = Half life in mouse at 2 mg/kg, iv; format: ADME, organism-based; conditions: in vivo
[38] = Mean residence time in mouse at 2 mg/kg, iv; format: ADME, organism-based; conditions: in vivo
[39] = tested on: Mus musculus; experiment: Clearance in mouse at 2 mg/kg, iv relative to hepatic blood flow; format: ADME, organism-based; conditions: in vivo
[40] = tested on: Mus musculus; experiment: Ratio of Cmax to Cmin in mouse at 10 mg/kg, po; format: ADME, organism-based; conditions: in vivo
[41] = Cmax in rat at 5 mg/kg, po; format: ADME, organism-based; set-up: dose 5 mg/kg, route oral; conditions: in vivo
[42] = Tmax in rat at 5 mg/kg, po; format: ADME, organism-based; conditions: in vivo
[43] = Half life in rat at 2 mg/kg, iv; format: ADME, organism-based; conditions: in vivo
[44] = tested on: Rattus norvegicus; experiment: Clearance in rat at 2 mg/kg, iv relative to hepatic blood flow; format: ADME, organism-based; conditions: in vivo
[45] = Oral bioavailability in rat at 5 mg/kg; format: ADME, organism-based; conditions: in vivo
[46] = AUC in cynomolgus monkey at 5 mg/kg, po; format: ADME, organism-based, Macaca fascicularis; conditions: in vivo
[47] = Half life in cynomolgus monkey at 2 mg/kg, iv; format: ADME, organism-based, Macaca fascicularis; conditions: in vivo
[48] = Mean residence time in cynomolgus monkey at 2 mg/kg, iv; format: ADME, organism-based, Macaca fascicularis; conditions: in vivo
[49] = Clearance in cynomolgus monkey at 2 mg/kg, iv; format: ADME, organism-based, Macaca fascicularis; conditions: in vivo
[50] = Volume of distribution at steady state in cynomolgus monkey at 2 mg/kg, iv; format: ADME, organism-based, Macaca fascicularis; conditions: in vivo, read-out: Vdss

Which Ratio [1] does the source give for `O=C(O)C1CN(Cc2ccc(-c3noc(-c4onc(-c5ccccc5)c4C(F)(F)F)n3)cc2)C1` here?
The Ratio was 37.

And the Tmax [2]?
The Tmax was 8.9 h.

What about the AUC [3] of the same compound?
Its AUC is 11 µM·h.

And the half-life [4]?
The half-life was 444 min.

And the MRT [5]?
Its MRT is 8.9 h.

And the clearance [6]?
Its clearance is 1.6 mL/min/kg.

And the inhibition [7]?
Its inhibition is “Dose-dependent effect”.

And the Activity [8]?
Its Activity is “Dose-dependent effect”.

What about the ED50 [9] of the same compound?
The ED50 was 0.02 mg/kg.

And the EC50 [10]?
The EC50 was 0.47 nM.

What about the Ratio EC50 [11] of the same compound?
Its Ratio EC50 is 3400.

What about the Activity [12] of the same compound?
Its Activity is 78%.

What about the concentration at 4 h [13] of the same compound?
Its concentration at 4 h is 2100 nM.

What about the Activity [14] of the same compound?
Its Activity is 91%.

And the EC50 [15]?
The EC50 was 0.27 nM.

And the Activity [16]?
The Activity was > 90%.

What about the fraction unbound [17] of the same compound?
Its fraction unbound is 0.006.

And the fraction unbound [18]?
The fraction unbound was 0.01.

And the fraction unbound [19]?
Its fraction unbound is 0.007.

And the Activity [20]?
The Activity was “Non-toxic”.

And the Papp A→B [21]?
Its Papp A→B is 10.4 ×10⁻⁶ cm/s.

And the inhibition [22]?
Its inhibition is < 5%.

And the IC50 [23]?
Its IC50 is > 40 µM.

And the IC50 [24]?
Its IC50 is > 40 µM.

And the IC50 [25]?
The IC50 was > 40 µM.

What about the concentration at 4 h [26] of the same compound?
Its concentration at 4 h is 180 nM.

And the Activity [27]?
The Activity was 73%.

And the concentration at 24 h [28]?
Its concentration at 24 h is 25 nM.

What about the Activity [29] of the same compound?
Its Activity is 75%.

What about the concentration at 4 h [30] of the same compound?
Its concentration at 4 h is 20 nM.

What about the concentration at 24 h [31] of the same compound?
Its concentration at 24 h is 4 nM.

And the Ratio [32]?
The Ratio was 7.

What about the Ratio [33] of the same compound?
The Ratio was 5.

And the Cmax [34]?
Its Cmax is 31 µM.

And the Tmax [35]?
The Tmax was 3 h.

And the AUC [36]?
Its AUC is 250 µM·h.

What about the half-life [37] of the same compound?
Its half-life is 588 min.

And the MRT [38]?
The MRT was 14 h.

What about the CL [39] of the same compound?
Its CL is 0.3%.

And the Ratio [40]?
The Ratio was 2.

What about the Cmax [41] of the same compound?
The Cmax was 3.9 µM.

And the Tmax [42]?
Its Tmax is 3.3 h.

And the half-life [43]?
Its half-life is 600 min.

What about the CL [44] of the same compound?
The CL was 2.4%.

And the bioavailability [45]?
The bioavailability was 52%.

And the AUC [46]?
The AUC was 25 µM·h.

And the half-life [47]?
The half-life was 180 min.

What about the MRT [48] of the same compound?
The MRT was 2.2 h.

What about the clearance [49] of the same compound?
The clearance was 5.2 mL/min/kg.

And the Vd [50]?
The Vd was 0.6 L/kg.
